Measurements from paper PMC8429728, “TNK1 is a ubiquitin-binding and 14-3-3-regulated kinase that can be targeted to block tumor growth” (Nature Communications, 2021).
Read-outs that look alike come from different tables or passages of the source.

How the values were obtained:
Test in all cases: biochemical
Design in all cases: Reaction Biology 371-kinase panel at Km ATP, per cent enzyme activity relative to DMSO, single dose in duplicate
ALK2/ACVR1 = ALK2/ACVR1 (Homo sapiens, UniProt Q04771); conditions: duplicate measurements, Km ATP; read-out: % Enzyme Activity (relative to DMSO controls) / TP-0005801 (0.3µM) / Data 1
How it was run: (§1)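 Compound screened at 300 nM in vitro across a 371-kinase panel. Enzyme activity expressed as % of DMSO controls. IC50 values came from sigmoidal variable-slope dose-response fits with the bottom fixed at 0.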

ALK3/BMPR1A = ALK3/BMPR1A (Homo sapiens, UniProt P36894); conditions: duplicate measurements, Km ATP
How it was run: as §1

ASK1/MAP3K5 = ASK1/MAP3K5 (Homo sapiens, UniProt Q99683); conditions: duplicate measurements, Km ATP
ASK1/MAP3K5, sequence (Q99683 whole entry): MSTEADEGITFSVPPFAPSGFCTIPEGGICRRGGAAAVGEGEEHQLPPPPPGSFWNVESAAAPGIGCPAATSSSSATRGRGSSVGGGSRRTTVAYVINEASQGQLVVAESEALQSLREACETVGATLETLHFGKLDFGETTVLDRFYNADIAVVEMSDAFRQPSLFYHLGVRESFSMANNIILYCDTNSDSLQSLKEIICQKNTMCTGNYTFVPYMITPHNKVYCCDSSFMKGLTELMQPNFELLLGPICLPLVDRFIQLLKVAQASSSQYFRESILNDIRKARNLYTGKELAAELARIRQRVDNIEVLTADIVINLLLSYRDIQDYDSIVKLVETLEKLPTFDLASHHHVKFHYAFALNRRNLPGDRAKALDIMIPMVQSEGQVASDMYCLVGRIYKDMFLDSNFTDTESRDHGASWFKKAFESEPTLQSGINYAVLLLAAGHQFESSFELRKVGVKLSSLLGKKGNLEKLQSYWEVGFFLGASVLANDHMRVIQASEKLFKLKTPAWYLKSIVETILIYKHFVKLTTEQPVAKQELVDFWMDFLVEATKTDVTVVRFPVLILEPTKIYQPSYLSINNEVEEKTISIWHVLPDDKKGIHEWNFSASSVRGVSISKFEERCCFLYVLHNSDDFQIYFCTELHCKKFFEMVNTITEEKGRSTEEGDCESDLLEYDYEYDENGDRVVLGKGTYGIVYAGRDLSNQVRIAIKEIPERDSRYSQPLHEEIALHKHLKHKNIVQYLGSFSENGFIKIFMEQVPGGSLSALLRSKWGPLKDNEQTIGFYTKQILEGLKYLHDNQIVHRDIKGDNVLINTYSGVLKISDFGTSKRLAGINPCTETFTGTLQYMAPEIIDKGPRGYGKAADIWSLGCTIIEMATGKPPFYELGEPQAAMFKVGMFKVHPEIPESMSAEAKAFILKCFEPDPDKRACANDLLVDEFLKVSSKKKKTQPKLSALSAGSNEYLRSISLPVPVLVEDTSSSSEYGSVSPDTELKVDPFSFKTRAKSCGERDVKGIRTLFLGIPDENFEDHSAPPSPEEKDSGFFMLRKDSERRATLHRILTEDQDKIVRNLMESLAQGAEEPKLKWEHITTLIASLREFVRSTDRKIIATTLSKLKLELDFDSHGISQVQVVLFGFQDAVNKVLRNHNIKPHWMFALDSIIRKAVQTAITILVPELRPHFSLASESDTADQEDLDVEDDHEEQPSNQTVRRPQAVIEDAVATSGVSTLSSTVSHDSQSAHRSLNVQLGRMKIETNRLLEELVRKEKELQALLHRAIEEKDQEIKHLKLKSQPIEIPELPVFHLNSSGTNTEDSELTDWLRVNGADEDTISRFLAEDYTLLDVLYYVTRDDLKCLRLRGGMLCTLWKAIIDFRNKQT
How it was run: as §1

CDK2/CYCLIN E = CDK2/CYCLIN E (Homo sapiens, UniProt P24941); conditions: duplicate measurements, Km ATP
How it was run: as §1

CDK3/cyclin E = CDK3/cyclin E (Homo sapiens, UniProt Q00526); conditions: duplicate measurements, Km ATP
CDK3/cyclin E, sequence (Q00526 whole entry): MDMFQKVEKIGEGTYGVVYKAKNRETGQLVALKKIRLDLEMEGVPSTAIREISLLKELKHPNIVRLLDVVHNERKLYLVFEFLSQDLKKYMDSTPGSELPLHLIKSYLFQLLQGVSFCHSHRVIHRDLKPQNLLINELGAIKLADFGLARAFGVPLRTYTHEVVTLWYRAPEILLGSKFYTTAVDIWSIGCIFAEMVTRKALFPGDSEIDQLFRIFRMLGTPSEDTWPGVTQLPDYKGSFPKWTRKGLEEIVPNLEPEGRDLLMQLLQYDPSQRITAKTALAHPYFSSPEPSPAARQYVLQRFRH
CDK3/cyclin E, sequence (P24864 whole entry partner): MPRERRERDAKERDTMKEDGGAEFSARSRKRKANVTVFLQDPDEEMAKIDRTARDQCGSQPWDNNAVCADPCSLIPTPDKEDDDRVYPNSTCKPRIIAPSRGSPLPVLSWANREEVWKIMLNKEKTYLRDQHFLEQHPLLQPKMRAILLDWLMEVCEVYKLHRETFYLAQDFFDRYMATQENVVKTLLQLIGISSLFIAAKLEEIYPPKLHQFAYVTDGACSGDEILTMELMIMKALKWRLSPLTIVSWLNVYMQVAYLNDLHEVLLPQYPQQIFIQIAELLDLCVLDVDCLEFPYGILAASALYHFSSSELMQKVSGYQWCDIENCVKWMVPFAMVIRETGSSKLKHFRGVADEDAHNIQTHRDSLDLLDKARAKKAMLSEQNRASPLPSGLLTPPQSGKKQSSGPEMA
How it was run: as §1

CK1g2 = biological target: T1, CK1g2 (Homo sapiens, UniProt P78368); conditions: duplicate measurements, Km ATP
T1 construct: gene CSNK1G2
T1 sequence (P78368 whole entry): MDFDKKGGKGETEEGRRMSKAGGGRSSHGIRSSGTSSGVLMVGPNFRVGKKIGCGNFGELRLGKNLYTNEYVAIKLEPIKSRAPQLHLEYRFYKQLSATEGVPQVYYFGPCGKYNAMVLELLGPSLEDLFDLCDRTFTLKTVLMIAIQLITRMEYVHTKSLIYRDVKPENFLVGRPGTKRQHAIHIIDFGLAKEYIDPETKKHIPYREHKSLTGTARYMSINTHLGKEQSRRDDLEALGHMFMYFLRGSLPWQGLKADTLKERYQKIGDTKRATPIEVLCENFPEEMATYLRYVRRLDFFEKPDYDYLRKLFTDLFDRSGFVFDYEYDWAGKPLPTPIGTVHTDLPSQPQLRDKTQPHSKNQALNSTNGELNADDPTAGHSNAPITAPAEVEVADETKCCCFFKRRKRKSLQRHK
How it was run: as §1

FGFR2 = FGFR2 (Homo sapiens, UniProt P21802); conditions: duplicate measurements, Km ATP
FGFR2, sequence (P21802 whole entry): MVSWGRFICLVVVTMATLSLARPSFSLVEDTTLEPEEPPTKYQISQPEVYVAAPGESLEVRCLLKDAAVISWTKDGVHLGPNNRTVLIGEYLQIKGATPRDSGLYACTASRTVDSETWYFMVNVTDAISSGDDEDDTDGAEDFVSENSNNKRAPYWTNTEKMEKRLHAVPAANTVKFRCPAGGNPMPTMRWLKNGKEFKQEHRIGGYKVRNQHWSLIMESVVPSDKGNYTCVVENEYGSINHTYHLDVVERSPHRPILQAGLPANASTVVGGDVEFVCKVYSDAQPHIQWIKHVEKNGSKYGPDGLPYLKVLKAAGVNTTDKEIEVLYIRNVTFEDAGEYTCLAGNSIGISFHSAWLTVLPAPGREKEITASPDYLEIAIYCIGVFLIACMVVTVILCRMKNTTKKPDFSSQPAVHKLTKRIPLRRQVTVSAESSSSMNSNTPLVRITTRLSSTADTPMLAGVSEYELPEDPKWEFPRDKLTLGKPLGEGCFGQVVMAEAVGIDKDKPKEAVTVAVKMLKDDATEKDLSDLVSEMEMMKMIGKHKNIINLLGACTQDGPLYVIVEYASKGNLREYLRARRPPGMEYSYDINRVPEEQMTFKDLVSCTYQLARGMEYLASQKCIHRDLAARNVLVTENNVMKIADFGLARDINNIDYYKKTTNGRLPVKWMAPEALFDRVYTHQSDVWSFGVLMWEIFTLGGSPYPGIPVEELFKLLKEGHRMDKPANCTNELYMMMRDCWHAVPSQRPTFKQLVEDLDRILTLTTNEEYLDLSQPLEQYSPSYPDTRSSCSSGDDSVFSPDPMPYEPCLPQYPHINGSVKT
How it was run: as §1

GSK3b = GSK3b (Homo sapiens, UniProt P49841); conditions: duplicate measurements, Km ATP
GSK3b, sequence (P49841 whole entry): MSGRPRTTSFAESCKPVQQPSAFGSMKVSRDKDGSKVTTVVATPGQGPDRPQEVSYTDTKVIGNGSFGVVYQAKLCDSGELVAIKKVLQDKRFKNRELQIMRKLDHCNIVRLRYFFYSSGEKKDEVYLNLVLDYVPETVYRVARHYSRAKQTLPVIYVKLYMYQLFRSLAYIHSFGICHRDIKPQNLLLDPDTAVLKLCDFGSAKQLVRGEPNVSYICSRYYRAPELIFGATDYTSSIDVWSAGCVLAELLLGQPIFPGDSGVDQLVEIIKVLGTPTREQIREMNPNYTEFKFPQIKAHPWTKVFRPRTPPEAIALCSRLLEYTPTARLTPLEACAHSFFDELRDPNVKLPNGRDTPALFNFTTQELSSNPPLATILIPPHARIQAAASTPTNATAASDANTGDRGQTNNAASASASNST
How it was run: as §1

JNK2 = biological target: T2, JNK2 (Homo sapiens, UniProt P45984); conditions: duplicate measurements, Km ATP
T2 construct: gene MAPK9
T2 sequence (P45984 whole entry): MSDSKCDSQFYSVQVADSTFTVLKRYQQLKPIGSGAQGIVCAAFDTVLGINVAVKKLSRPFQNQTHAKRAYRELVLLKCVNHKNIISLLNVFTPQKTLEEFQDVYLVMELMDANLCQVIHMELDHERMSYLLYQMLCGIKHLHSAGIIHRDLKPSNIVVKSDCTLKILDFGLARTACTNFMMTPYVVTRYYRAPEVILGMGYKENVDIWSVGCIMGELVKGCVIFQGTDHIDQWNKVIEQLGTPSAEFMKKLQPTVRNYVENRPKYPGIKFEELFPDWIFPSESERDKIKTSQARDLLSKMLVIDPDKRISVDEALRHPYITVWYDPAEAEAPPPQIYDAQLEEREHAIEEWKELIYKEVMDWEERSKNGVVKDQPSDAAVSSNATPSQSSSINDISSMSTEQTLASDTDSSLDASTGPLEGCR
How it was run: as §1

MLK4 = biological target: T3, MLK4 (Homo sapiens, UniProt Q5TCX8); conditions: duplicate measurements, Km ATP; read-out: % Enzyme Activity (relative to DMSO controls) / TP-0005801 (0.3µM) / Data 1
T3 construct: gene MAP3K21
How it was run: as §1

NLK = NLK (Homo sapiens, UniProt Q9UBE8); conditions: duplicate measurements, Km ATP
NLK, sequence (Q9UBE8 whole entry): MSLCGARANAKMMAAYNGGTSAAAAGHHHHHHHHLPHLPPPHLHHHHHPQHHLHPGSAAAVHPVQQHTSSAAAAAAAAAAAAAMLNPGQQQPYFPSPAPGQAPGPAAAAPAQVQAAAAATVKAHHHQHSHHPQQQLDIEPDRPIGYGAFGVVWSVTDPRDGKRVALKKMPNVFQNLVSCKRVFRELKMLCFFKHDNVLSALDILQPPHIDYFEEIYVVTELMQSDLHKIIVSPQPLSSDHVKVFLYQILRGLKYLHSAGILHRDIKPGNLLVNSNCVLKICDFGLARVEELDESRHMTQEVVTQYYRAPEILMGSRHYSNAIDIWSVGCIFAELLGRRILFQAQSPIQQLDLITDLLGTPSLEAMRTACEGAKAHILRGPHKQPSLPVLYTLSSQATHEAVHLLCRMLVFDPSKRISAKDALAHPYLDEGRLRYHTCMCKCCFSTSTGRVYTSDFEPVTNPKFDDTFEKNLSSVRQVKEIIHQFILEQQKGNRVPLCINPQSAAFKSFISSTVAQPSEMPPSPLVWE
How it was run: as §1

PKCtheta = biological target: T4, PKCtheta (Homo sapiens, UniProt Q04759); conditions: duplicate measurements, Km ATP
T4 construct: gene PRKCQ
How it was run: as §1

PKN3/PRK3 = PKN3/PRK3 (Homo sapiens, UniProt Q6P5Z2); conditions: duplicate measurements, Km ATP
How it was run: as §1

SGK1 = SGK1 (Homo sapiens, UniProt O00141); conditions: duplicate measurements, Km ATP
How it was run: as §1

STK38L/NDR2 = STK38L/NDR2 (Homo sapiens, UniProt Q9Y2H1); conditions: duplicate measurements, Km ATP
How it was run: as §1

VRK2 = VRK2 (Homo sapiens, UniProt Q86Y07); conditions: duplicate measurements, Km ATP
How it was run: as §1

[1] = read-out: % Enzyme Activity (relative to DMSO controls) / TP-0005801 (0.3µM) / Data 1
[2] = read-out: % Enzyme Activity (relative to DMSO controls) / TP-0005801 (0.3µM) / Data 2

Structure (SMILES): COc1cc(N2CCN(C)CC2)c(C)cc1Nc1ncc(Br)c(Nc2cccnc2N(C)C)n1 [TP-5801]
- remaining activity at 0.3 µM (ALK2/ACVR1): 90.6%
- remaining activity at 0.3 µM (ALK3/BMPR1A; [1]): 105%
- remaining activity at 0.3 µM (ALK3/BMPR1A; [2]): 100%
- remaining activity at 0.3 µM (ASK1/MAP3K5; [1]): 99%
- remaining activity at 0.3 µM (ASK1/MAP3K5; [2]): 98.6%
- remaining activity at 0.3 µM (CDK2/CYCLIN E; [1]): 91.7%
- remaining activity at 0.3 µM (CDK2/CYCLIN E; [2]): 91.2%
- remaining activity at 0.3 µM (CDK3/cyclin E; [1]): 98%
- remaining activity at 0.3 µM (CDK3/cyclin E; [2]): 97.7%
- remaining activity at 0.3 µM (CK1g2; [1]): 94.5%
- remaining activity at 0.3 µM (CK1g2; [2]): 92.9%
- remaining activity at 0.3 µM (FGFR2; [1]): 89.2%
- remaining activity at 0.3 µM (FGFR2; [2]): 87.3%
- remaining activity at 0.3 µM (GSK3b; [1]): 96.4%
- remaining activity at 0.3 µM (GSK3b; [2]): 95.7%
- remaining activity at 0.3 µM (JNK2; [1]): 97%
- remaining activity at 0.3 µM (JNK2; [2]): 96.3%
- remaining activity at 0.3 µM (MLK4): 106%
- remaining activity at 0.3 µM (NLK; [1]): 92.3%
- remaining activity at 0.3 µM (NLK; [2]): 85.8%
- remaining activity at 0.3 µM (PKCtheta; [1]): 91.3%
- remaining activity at 0.3 µM (PKCtheta; [2]): 90.3%
- remaining activity at 0.3 µM (PKN3/PRK3; [1]): 95.4%
- remaining activity at 0.3 µM (PKN3/PRK3; [2]): 93.7%
- remaining activity at 0.3 µM (SGK1; [1]): 91.7%
- remaining activity at 0.3 µM (SGK1; [2]): 91%
- remaining activity at 0.3 µM (STK38L/NDR2; [1]): 53.1%
- remaining activity at 0.3 µM (STK38L/NDR2; [2]): 52.8%
- remaining activity at 0.3 µM (VRK2; [1]): 96%
- remaining activity at 0.3 µM (VRK2; [2]): 93.9%
